In brackets after ≈: the same amount, converted by molar mass.

Holding throughout (type): physicochemical
The nature of data set [1]: oxidation-reduction cycle durability test (cyclic voltammetry). The conditions noted are these: dichloromethane; for change in oxidation peak current after 20,000 oxidation-reduction cycles (in words): 20,000 cycles; for Rate of Change in Oxidation Peak Current after Oxidation-Reduction Cycles for 20,000 Times: tetrabutylammonium perchlorate 0.1 mol/L, compound 1.0×10^−4 mol/L, initial current = 100%. Here is the method: For the durability measurement, glassy carbon was used for a working electrode, platinum was used for a counter electrode, silver was used for a reference electrode, and a dichloromethane solution was used in which tetrabutylammonium perchlorate (0.1 mol/L) as a supporting electrolyte and each of the above compounds (1.0×10^−4 mol/L) were dissolved.
In this solution, a square-wave potential program including constant potential oxidation at +0.8 V (B-2 and B-1) or +1.2 V (XX-4) (vs. Ag/Ag^+), each of which was equal to or more than the oxidation potential of the corresponding compound, for 3 seconds and subsequent constant potential reduction at 0 V (vs. Ag/Ag^+) for 3 seconds was repeatedly performed 20,000 times.
The changes in oxidation peak current in cyclic voltammetry (CV) measurement before and after the oxidation-reduction cycles for 20,000 times are shown in Table.
In this table, the “rate of change in oxidation peak current” indicates a value obtained by adding the change in current from the initial current (represented by 100%) to the initial current.

Data set [2] can be described thus: ultraviolet-visible absorption spectrum in the neutral state, chloroform solution. Here is the method: The exemplary compound B-2 thus obtained was dissolved in chloroform, and the absorption spectrum of this solution measured by using an ultraviolet-visible spectrophotometer (V-560 manufactured by JASCO Corporation) is shown in FIG. 2.
Data set [3] can be described thus: oxidation absorption spectrum / change in transmittance on constant potential oxidation. The conditions noted are these: for shape and wavelength of the oxidation absorption peak with concentration (π-dimer formation): 5.0×10^−4 or 1.7×10^−4 mol/L; for transmittance after oxidation / light absorption peak in the oxidized state: constant potential oxidation at +0.9 V (vs. Ag/Ag+); for transmittance after oxidation: at the absorption peak. Here is the method:
For the measurement of an oxidation absorption spectrum, platinum was used for a working electrode, platinum was used for a counter electrode, silver was used for a reference electrode, and a dichloromethane solution was used in which tetrabutylammonium perchlorate (0.1 mol/l) as a supporting electrolyte and each of the above compounds (5.0×10^−4 or 1.7×10^−4 mol/L) were dissolved.
In this solution, constant potential oxidation at +0.9 V (vs. Ag/Ag+), which was equal to or more than the oxidation potential of the compound, was performed, and the change in transmittance was measured.
The measurement of the oxidation absorption spectrum of the obtained compound D-11 was performed as in Example 4 using a dichloromethane solution in which tetrabutylammonium perchlorate (0.1 mol/L) and D-11 (5.0×10^−4 mol/L) were dissolved. […] This oxidation colored state was again returned to a colorless and transparent state by reduction, and the electrochromic characteristics in conformity with oxidation-reduction were confirmed. In addition, since the shape and the absorption wavelength of this oxidation absorption peak were not changed with the concentration, it was shown that as in Example 4, the formation of π-dimers was suppressed.

Data set [4] in a line: solubility in propylene carbonate solution of supporting electrolyte. The following applies: propylene carbonate solution of LiCO4 (0.1 mol/L), organic solvent or mixture. Here is the method: In addition, as one example of the element solvent, the solubility of the compound D-11 in a propylene carbonate solution of LiCO4 (supporting electrolyte, 0.1 mol/L) was confirmed. According to the result, it was confirmed that this compound was dissolved at a concentration of 9 mmol/L and that the solubility thereof was higher than the solubility (6 mmol/L) of the compound B-2 of Example 1. The reason for this is believed that since having an ester group-containing phenyl group at the 3-position of DTT, the compound D-11 has an improved solubility into propylene carbonate, which is a polar solvent.

Consider `COc1cccc(OC)c1-c1sc2c(sc3c(-c4ccccc4)c(-c4c(OC)cccc4OC)sc32)c1-c1ccccc1` [B-1], for which, in data set [1], the “change in oxidation peak current after 20,000 oxidation-reduction cycles (in words)” value is on record as “hardly observed” and the “Rate of Change in Oxidation Peak Current after Oxidation-Reduction Cycles for 20,000 Times” value is 98%. In data set [2], the “absorption in the visible light region” value is “no absorption over the entire visible light region” and the “λ max at which the absorption peak showed the maximum intensity” value (shortened to “λ max”) is recorded as 309.5 nm. Further, in data set [3], the “shape and wavelength of the oxidation absorption peak with concentration (π-dimer formation)” value (shortened to “shape and wavelength”) is given as “not changed”; the transmittance after oxidation amounted to 20.3%. The “light absorption peak in the oxidized state” value in data set [3] (dichloromethane) was “approximately 510 nm”. The “transmittance in the bleached state before oxidation” value in data set [3] (over the entire visible light region, dichloromethane) is reported as “approximately 100%”.

In general, solubility refers to the dissolved amount per volume that the medium holds. Turning to `COc1cccc(OC(C)C)c1-c1sc2c(sc3c(-c4ccccc4)c(-c4c(OC)cccc4OC(C)C)sc32)c1-c1ccccc1` [B-2], in data set [1], the “change in oxidation peak current after 20,000 oxidation-reduction cycles (in words)” value is on record as “hardly observed” and the “Rate of Change in Oxidation Peak Current after Oxidation-Reduction Cycles for 20,000 Times” value is on record as 101%. Moreover, in data set [2], the “absorption in the visible light region” value is given as “no absorption over the entire visible light region” and the “λ max” value is given as 307.5 nm. In addition, the “shape and wavelength” value in data set [3] was “not changed”. In data set [4], the solubility is 6 mM (≈ 4060 µg/mL).

For `COC(=O)c1ccc(-c2c(-c3c(OC)cccc3OC(C)C)sc3c2sc2c(-c4ccc(C(=O)OC)cc4)c(-c4c(OC)cccc4OC(C)C)sc23)cc1` [D-11], in data set [2], the “absorption in the visible light region” value was “no absorption over the entire visible light region” and the “λ max” value came to 316.0 nm. Moreover, in data set [3], the “shape and wavelength” value is given as “not changed”; the transmittance after oxidation is given as 36.3%. The “light absorption peak in the oxidized state” value in data set [3] (dichloromethane) is on record as 541.5 nm. Also, the solubility in data set [4] is 9 mM (≈ 7140 µg/mL).

For the compound `CC(C)(C)c1cc2sc3cc(C(C)(C)C)sc3c2s1` [XX-4, reference compound], in data set [1], the “change in oxidation peak current after 20,000 oxidation-reduction cycles (in words)” value was “decreased” and the “Rate of Change in Oxidation Peak Current after Oxidation-Reduction Cycles for 20,000 Times” value was 81%.

Values taken from patent US8754241B2, “Organic compound and electrochromic element having the same” (Canon Kabushiki Kaisha, priority 2012, dated 2014).
